Measured values published in patent US11213484B2, “Dipivefrin orally disintegrating tablet formulations” (priority 2019, dated 2022).

Experiments:
[1] = cited from earlier work
[2] = Oral absorption (general statements); format: in vivo; details: orally administered
[3] = cited from earlier work; remark: listed apart in the source
[4] = well known in the art; cited from earlier work

absorption after oral administration [2]	Compound	dipivefrin converted into epinephrine ([1]; 0.5% solution instilled in human eyes, within 30 minutes) [%]	ocular penetration relative to epinephrine (times greater) ([1]; human eyes) [times]	amount entering the rabbit eye relative to epinephrine [3]	absorption when taken orally [4]
well absorbed	CNCC(O)c1ccc(OC(=O)C(C)(C)C)c(OC(=O)C(C)(C)C)c1 (centres unmarked) [Dipivefrin, 4-(1-hydroxy-2-(methylamino)ethyl)-1,2-phenylene bis(2,2-dimethylpropanoate)]	80	17	eight to ten times more	–
–	CNC[C@H](O)c1ccc(O)c(O)c1 [epinephrine]	–	–	–	not absorbed
